Data reported in patent US7932263B2, “Therapeutic treatment” (AstraZeneca AB, priority 2003, dated 2011).

What was measured:
Format in all cases: in vivo, mouse
CD40 = CD40 expression in aorta by RT-PCR and Western blot; conditions: aorta of apo-E knockout mice, high-cholesterol diet, 1 mg/kg/d of each drug, 12 weeks; vs high-cholesterol diet alone
Protocol: (§1) Five pairs of C57BL/6J mice and three pairs of homozygous apo-E knockout mice (on C57BL/6J background) were obtained from Jackson Laboratories (Bar Harbor, Me.). They were bred by brother-sister mating and housed in a room lit from 6:00 AM to 6:00 PM and kept at 21° C. The C57BL/6J mice (n=10) were continued on regular diet for the entire study period. The apo-E knockout mice were divided into four groups. Group 1 (n=10) animals were given high-cholesterol diet (1% cholesterol) alone for 12 weeks since the age of 6 weeks; Group 2 (n=10) animals were given high-cholesterol diet with candesartan (1 mg/kg/d) for 12 weeks since the age of 6 weeks; Group 3 (n=10) animals were given high-cholesterol diet with the rosuvastatin (1 mg/kg/d) for 12 weeks since the age of 6 weeks; Group 4 (n=10) animals were given high-cholesterol diet with candesartan (1 mg/kg/d) and rosuvastatin (1 mg/kg/d) for 12 weeks since the age of 6 weeks.
(§2) At the end of 12-week-treatment, 5 mice from each group were euthanized and the aortas (from aorta arch to iliac bifurcation) were separated from surrounding tissues and stored on dry ice. Each aorta was cut into four segments, two of which were used to extract total RNA with the single-step acid-guanidinium thiocyanate-phenol-chloroform method as described earlier (27). […]

MMP-9 = MMP-9 expression in aorta by RT-PCR and Western blot; conditions: aorta of apo-E knockout mice, high-cholesterol diet, 1 mg/kg/d of each drug, 12 weeks; vs high-cholesterol diet alone
Protocol: as §1, §2

MMP-1 = MMP-1 expression in aorta by RT-PCR and Western blot; conditions: aorta of apo-E knockout mice, high-cholesterol diet, 1 mg/kg/d of each drug, 12 weeks; vs high-cholesterol diet alone
Protocol: as §1, §2

TIMP-1 = TIMP-1 protein expression in aorta by Western blot; conditions: aorta of apo-E knockout mice, high-cholesterol diet, 1 mg/kg/d of each drug, 12 weeks; vs high-cholesterol diet alone
Protocol: (§3) Five pairs of C57BL/6J mice and three pairs of homozygous apo-E knockout mice (on C57BL/6J background) were obtained from Jackson Laboratories (Bar Harbor, Me.). They were bred by brother-sister mating and housed in a room lit from 6:00 AM to 6:00 PM and kept at 21° C. The C57BL/6J mice (n=10) were continued on regular diet for the entire study period. The apo-E knockout mice were divided into four groups. […]
(§4) Each mouse aorta was cut into four segments. […] Membranes were washed and then incubated with 1:5000 dilution specific secondary antibody (Amersham Life Science) for 2 hours at room temperature, and the membranes were washed and detected with the ECL system (Amersham Life Science). The relative intensities of protein bands were analyzed by Scan-gel-it software (Li D Y, Zhang Y C, Sawamura T, Mehta J L. Circ Res. 1999; 84:1043-1049).
(§5) All data represent mean of duplicate samples. […] Statistical significance was determined in multiple comparisons among independent groups of data in which ANOVA and the F test indicated the presence of significant differences. […]

MMP-2 = MMP-2 expression in aorta by RT-PCR and Western blot; conditions: aorta of apo-E knockout mice, high-cholesterol diet, 1 mg/kg/d of each drug, 12 weeks; vs high-cholesterol diet alone
Protocol: as §1, §2

LOX-1 = LOX-1 expression in aorta by RT-PCR and Western blot; conditions: aorta of apo-E knockout mice, high-cholesterol diet, 1 mg/kg/d of each drug, 12 weeks; vs high-cholesterol diet alone
Protocol: as §1, §2

[1] = tested on: apo-E knockout mice fed high-cholesterol diet; assay: Quantitative analysis of atherosclerotic plaques (Sudan IV stained aortas); conditions: 1 mg/kg/d of each drug, 12 weeks, vs high-cholesterol diet alone
Protocol: Five pairs of C57BL/6J mice and three pairs of homozygous apo-E knockout mice (on C57BL/6J background) were obtained from Jackson Laboratories (Bar Harbor, Me.). They were bred by brother-sister mating and housed in a room lit from 6:00 AM to 6:00 PM and kept at 21° C. The C57BL/6J mice (n=10) were continued on regular diet for the entire study period. The apo-E knockout mice were divided into four groups. Group 1 (n=10) animals were given high-cholesterol diet (1% cholesterol) alone for 12 weeks since the age of 6 weeks; Group 2 (n=10) animals were given high-cholesterol diet with candesartan (1 mg/kg/d) for 12 weeks since the age of 6 weeks; Group 3 (n=10) animals were given high-cholesterol diet with the rosuvastatin (1 mg/kg/d) for 12 weeks since the age of 6 weeks; Group 4 (n=10) animals were given high-cholesterol diet with candesartan (1 mg/kg/d) and rosuvastatin (1 mg/kg/d) for 12 weeks since the age of 6 weeks. At the end of 12-week-treatment, the mice were sacrificed and subject to studies described below. All experimental procedures were performed in accordance with protocols approved by the institutional Animal Care and Usage Committee of University of Arkansas for Medical Sciences. Quantitative Analysis of Atherosclerotic Plaques At the end of 12-week-treatment, 5 mice from each group were euthanized and the aortas were separated from surrounding tissues. After removal of the adventitial fat tissue, the aortas were opened longitudinally from the aorta arch to the iliac bifurcation, and fixed in 10% formalin for 24 hours. Then the aortas were rinsed in 70% alcohol briefly, stained with Sudan IV solution for 15 minutes, differentiated in 80% alcohol for 20 minutes and washed in running water for 1 hour (Russell L. Techniques for studying atherosclerotic lesion, Lab Invest. 1958; 7:42-47). […] The images were analyzed by soft ware (Image Pro Plus, Media Cybernetics). […] Statistical significance was determined in multiple comparisons among independent groups of data in which ANOVA and the F test indicated the presence of significant differences. […]

TIMP-2 = TIMP-2 protein expression in aorta by Western blot; conditions: aorta of apo-E knockout mice, high-cholesterol diet, 1 mg/kg/d of each drug, 12 weeks; vs high-cholesterol diet alone
Protocol: as §3, §4, §5

SMILES | CD40 expression (mRNA and protein) (CD40) | MMP-9 expression (mRNA and protein) (MMP-9) | MMP-1 expression (mRNA and protein) (MMP-1) | TIMP-1 protein expression (TIMP-1) | MMP-2 expression (mRNA and protein) (MMP-2) | LOX-1 expression (mRNA and protein) (LOX-1) | decrease of atherosclerosis [1] | extent of atherosclerosis (in words) [1] | TIMP-2 protein expression (TIMP-2)
CC(C)c1nc(N(C)S(C)(=O)=O)nc(-c2ccc(F)cc2)c1/C=C/[C@@H](O)C[C@@H](O)CC(=O)O [rosuvastatin] | slightly decreased CD40 expression | decreased MMP-1, -2 and -9 expression (mRNA and protein), albeit modestly | decreased MMP-1, -2 and -9 expression (mRNA and protein), albeit modestly | reduced TIMP-1 and TIMP-2 expression by a small degree | decreased MMP-1, -2 and -9 expression (mRNA and protein), albeit modestly | decreased the LOX-1 expression (mRNA and protein), albeit modestly | ~25% | decreased the extent of atherosclerosis | reduced TIMP-1 and TIMP-2 expression by a small degree
CCOc1nc2cccc(C(=O)O)c2n1Cc1ccc(-c2ccccc2-c2nnn[nH]2)cc1 [candesartan] |  |  |  |  |  |  | about 35% |  | 
